One data set has as its system SP1/oligonucleotide. The data set is described as follows: Negative control of the screening system: strand exchange of a nucleic acid set that does not bind to NF-κB (Example 5). Particulars: 0 to 5 nmol aurothioglucose, duplexes 05C/08 and 06B/07 as negative control, same reaction (FIG. 9). The text has this:
A synthetic oligonucleotide SP1-08 and a synthetic oligonucleotide SP1-05-5C3 labeled at the 5′ terminus with Cy3, or a synthetic oligonucleotide SP1-07 and a synthetic oligonucleotide SP1-06-3B1 labeled at the 3′ terminus with BHQ1 were mixed to prepare duplexes 05C/08 and 06B/07 having a single-stranded terminus under the same conditions as in Example 1. The duplexes 05C/08 and 06B/07 have an SP1 binding sequence.
(§1) To a mixed solution of 31F/42 and 05C/08 (50 fmol each), 0 to 5 nmol of aurothioglucose and 0.5 pmol of recombinant human NFκB p50 (Promega Corp.) were added, and further a mixed solution of 32D/41 and 06B/07 (200 fmol each) was added. The resulting solution was mixed and reacted at 25° C. for 30 minutes. […] The fluorescence values of fluorescein and Cy3 were measured using a fluorescence plate reader Ultra (Tecan Group Ltd.). The fluorescein was excited at 485 nm, and its fluorescence was measured at 535 nm. The Cy3 was excited at 535 nm and its fluorescence was measured at 595 nm.

The next data set has as its system NF-κB. Particulars: Yang et al. FEBS letters 1995, 361, 89-96; cited from earlier work.
The target in data set [1] is T1, recombinant human NFκB p50 (Homo sapiens, UniProt P19838).
T1 construct: recombinant human NFκB p50 (Promega Corp.); purchased Promega Corp
T1 sequence (P19838 1-433 limits assumed): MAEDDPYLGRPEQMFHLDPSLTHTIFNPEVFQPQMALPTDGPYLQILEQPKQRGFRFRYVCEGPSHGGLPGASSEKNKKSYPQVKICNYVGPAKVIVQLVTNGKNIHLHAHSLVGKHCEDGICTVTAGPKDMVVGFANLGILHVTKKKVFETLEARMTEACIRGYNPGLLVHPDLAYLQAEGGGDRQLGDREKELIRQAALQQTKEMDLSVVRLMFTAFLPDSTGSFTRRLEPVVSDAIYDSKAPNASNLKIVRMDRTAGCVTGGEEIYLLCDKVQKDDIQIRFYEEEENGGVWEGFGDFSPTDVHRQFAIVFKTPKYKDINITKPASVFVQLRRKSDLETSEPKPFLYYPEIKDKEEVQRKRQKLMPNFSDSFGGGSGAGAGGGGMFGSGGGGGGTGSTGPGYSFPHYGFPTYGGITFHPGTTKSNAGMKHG
The data set is described as follows: Detection of NF-κB (p50) inhibitory effect of aurothioglucose (Example 5). Particulars: 0 to 5 nmol aurothioglucose, 0.5 pmol NFκB p50, duplexes 31F/42 and 32D/41, 25° C. 30 minutes, relative to absence of aurothioglucose (FIG. 9). Format: binding.
Description: A synthetic oligonucleotide NFkB-42 and a synthetic oligonucleotide NFkB-31-5F labeled at the 5′ terminus with fluorescein, or a synthetic oligonucleotide NFkB-41 and a synthetic oligonucleotide NFkB-32-3D labeled at the 3′ terminus with DABCYL were mixed to prepare duplexes 31F/42 and 32D/41 having a single-stranded terminus under the same conditions as in Example 1. The duplexes 31F/42 and 32D/41 have an NF-κB binding sequence.
as §1

For the next data set, the target named is T2, recombinant human SP1 (Homo sapiens, UniProt P08047).
T2 construct: purchased Promega Corp
The data set is described as follows: Effect of mismatch introduction on suppression of strand exchange, SP1 (Example 4-1). Particulars: 40 fmol SP05C/08B, 2.5 pmol SP1, 80 fmol of the added duplex or single strand, 25° C. 120 minutes (FIG. 7). In kind it is binding. The text has this:
A synthetic oligonucleotide SP1-05-5C3 labeled at the 5′ terminus with Cy3 and a synthetic oligonucleotide SP1-08-3B1 labeled at the 3′ terminus with BHQ1 were mixed to prepare a duplex SP05C/08B having a single-stranded terminus under the same conditions as in Example 1. Moreover, synthetic oligonucleotides SP1-06 and SP1-07, synthetic oligonucleotides SP1-21 and SP1-22, or synthetic oligonucleotides SP1-23 and SP1-24 were mixed to prepare duplexes SP06/07, SP22/21, and SP24/23 having a single-stranded terminus under the same conditions as in Example 1. These duplexes have an SP1 binding sequence.
40 fmol of SP05C/08B and 2.5 pmol of recombinant human SP1 (Promega Corp.) were mixed into a reaction solution (10 mM HEPES-NaOH pH 7.9, 50 mM KCl, 0.1 mM EDTA, 5 mM DTT, 10% glycerol, 0.05% IGEPAL CA-630, 15 μL) and reacted at 25° C. for 30 minutes. 80 fmol of SP06/07, SP22/21, SP24/23, SP1-07, SP1-21, or SP1-23 was added thereto, and […] of the resulting mixture was then reacted at 25° C. for 120 minutes. The fluorescence value of Cy3 was measured using a fluorescence plate reader Ultra (Tecan Group Ltd.).

T2 sequence (P08047 whole entry): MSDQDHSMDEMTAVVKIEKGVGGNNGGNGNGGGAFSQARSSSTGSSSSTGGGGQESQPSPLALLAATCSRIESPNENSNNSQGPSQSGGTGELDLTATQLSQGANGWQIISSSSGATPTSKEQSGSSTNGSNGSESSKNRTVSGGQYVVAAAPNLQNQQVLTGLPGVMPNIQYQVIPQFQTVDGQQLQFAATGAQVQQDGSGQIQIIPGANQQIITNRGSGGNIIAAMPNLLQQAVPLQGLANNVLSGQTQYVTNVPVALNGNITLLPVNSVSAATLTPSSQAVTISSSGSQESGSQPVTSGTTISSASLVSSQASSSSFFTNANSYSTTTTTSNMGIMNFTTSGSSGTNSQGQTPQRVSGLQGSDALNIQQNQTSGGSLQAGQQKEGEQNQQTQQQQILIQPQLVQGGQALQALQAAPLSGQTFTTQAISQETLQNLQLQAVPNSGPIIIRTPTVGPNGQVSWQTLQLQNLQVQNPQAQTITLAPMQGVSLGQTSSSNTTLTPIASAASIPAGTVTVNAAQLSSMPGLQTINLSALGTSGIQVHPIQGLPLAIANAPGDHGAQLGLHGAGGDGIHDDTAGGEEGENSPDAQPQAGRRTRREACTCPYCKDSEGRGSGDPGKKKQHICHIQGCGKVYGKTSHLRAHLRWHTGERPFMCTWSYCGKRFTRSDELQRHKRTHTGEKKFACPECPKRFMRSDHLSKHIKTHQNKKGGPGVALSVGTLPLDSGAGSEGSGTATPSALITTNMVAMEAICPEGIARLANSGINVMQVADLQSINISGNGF

As to `OC[C@H]1O[C@H]([S-])[C@H](O)[C@@H](O)[C@@H]1O.[Au+]` [aurothioglucose, Aurothioglucose], the “relative fluorescence value of the SP1/oligonucleotide” value with SP1/oligonucleotide is “hardly influenced”. Also, in the data set on NF-κB, the “inhibition of NF-κB” value is recorded as “known to inhibit NF-κB”. For the same compound, the “relative fluorescence value of the NF-κB/oligonucleotide complex” value in data set [1] is “decreased depending on the concentration of aurothioglucose”.

As for “SP1-07: synthetic oligonucleotide 5′ ATTCGATCGGGGCGGGGCGACGAGC AGGCTACTCTCTGACCG 3′ (SEQ ID NO: 31) (DNA ATTCGATCGGGGCGGGGCGACGAGCAGGCTACTCTCTGACCG; DNA, backbone and methylation of C not given here)”, the “effect of addition of SP1 on increase in fluorescence value (Cy3) caused by strand exchange” value with recombinant human SP1 was “suppressed increase in fluorescence value”.
